Test results as given in PMC12143354, “Determining sex differences in aortic valve myofibroblast responses to drug combinations identified using a digital medicine platform” (Science Advances, 2025).
Like-named read-outs stand apart in the source and are kept apart here.

Assays:
male VICs [1] = experiment: percent αSMA GMI reduction by immunofluorescent staining, male VICs on TCPS; assay type: cell-based, pig; conditions: for reduction in αSMA GMI, initial screen: male VICs on TCPS, dosing range 10^-7 to 10^3 μM; for Percent αSMA reduction, Average: male VICs, n = 3 wells; for Percent αSMA reduction, Average / sex difference in efficacy (male versus female EC20): TCPS; for sex difference in efficacy (male versus female EC20): unpaired two-tailed t test, P < 0.05
Experimental: (§1) VICs were collected by aspirating off spent media, washing with PBS (Sigma-Aldrich) for 1 min, then incubating with 1× trypsin (Life Technologies) for 3 min. Trypsin was neutralized with an equal volume of 15% FBS growth media and centrifuged for 5 min at 0.2g. The media solution was then aspirated, and VICs were resuspended with 1 ml of 1% FBS media. VICs were counted with an automated hemocytometer to calculate the volume of cell solution to add to each well to seed at 6400 cells per well (20,000 cells/cm^2) for TCPS and hydrogel experiments. […] For each inhibitor, the nonlinear regression tool in Prism was used to estimate the response against the agonist by fitting the top, bottom, EC50/CC50, and hillslope to each dataset.

female VICs [2] = experiment: percent αSMA GMI reduction by immunofluorescent staining, female VICs on TCPS; assay type: cell-based, pig; conditions: for reduction in αSMA GMI, initial screen: female VICs on TCPS, dosing range 10^-7 to 10^3 μM; for Percent αSMA reduction, Average: female VICs, TCPS, n = 3 wells
Experimental: as §1

male VICs [3] = experiment: percent αSMA GMI reduction, male VICs on stiff hydrogels; assay type: cell-based, pig; conditions: for EC1 / EC2 / Percent αSMA reduction, Average: male VICs; for EC1 / EC2: from dose response curves; for Percent αSMA reduction, Average: n = 3-4 gels
Experimental: (§2) Glass-bottom 96-well plates (Cellvis) were placed in an autoclave jar with a scintillation vial containing 100 μl of mercaptopropyltrimethoxysilane (MPTS; Sigma-Aldrich). The autoclave jar was then lightly sealed and placed inside an oven at 60°C for a minimum of 6 hours. The autoclave jar was opened in a chemical fume hood, and the vapor-deposited well plate was stored for up to 2 hours until ready for use. Eight-arm 20-kDa PEG-norbornene (PEG-Nb) was formed as outlined previously ([76]). A 7% (w/v) PEG-Nb hydrogel precursor solution was formed by combining phosphate-buffered saline (PBS), 20-kDa PEG-Nb at a 0.98:1 thiol-to-ene ratio, 5-kDa PEG-dithiol (Jenkem), CRGDS cell binding motif (Bachem), and lithium phenyl-2,4,6-trimethyl-benzoylphosphinate (Thermo Fisher Scientific). An EPMotion 5073l automated liquid handling system (Eppendorf) was used to pipet 7 μl of the hydrogel precursor solution into the center of each well of the vapor-deposited 96-well glass-bottom plate. The well plate with the hydrogel precursor solution was then stamped using a custom 96-well plate stamp, inverted, and cured under ultraviolet light at 10 mW/cm^2 for 3 min to induce gelation. The stamp was carefully removed by hand, and the newly formed gels were sterilized with a solution of 5% isopropyl alcohol (Thermo Fisher Scientific) in PBS for 20 min. Gels were then washed twice with PBS and stored in VIC media composed of Media199 (Life Technologies), 1% fetal bovine serum (FBS, Life Technologies), amphotericin B (1 μg/ml; Thermo Fisher Scientific), penicillin (50 U/ml; Sigma-Aldrich), and streptomycin (50 μg/ml; Sigma-Aldrich). Last, the hydrogels were placed in an incubator at 37°C with 5% carbon dioxide for up to 24 hours until experimental use.
(§3) Media changes were performed every 24 to 48 hours until cells reached ~80% confluency. […] The media solution was then aspirated, and VICs were resuspended with 1 ml of 1% FBS media. VICs were counted with an automated hemocytometer to calculate the volume of cell solution to add to each well to seed at 6400 cells per well (20,000 cells/cm^2) for TCPS and hydrogel experiments. For all experiments, VICs were seeded with 1% FBS media containing the specified drug doses and incubated at 37°C with 5% carbon dioxide with media changes every 48 to 72 hours if needed.
(§4) Drug stock solutions were discarded after two thaw cycles or after 10 months of storage. For all experiments, drug dilutions were calculated and added to VIC media to ensure that total DMSO levels remained below 1% for cytotoxicity and αSMA reduction curve fitting experiments and below 0.3% for drug combination experiments.
(§5) After culture on hydrogels or TCPS, the spent drug-containing media were removed, and VICs were immersed in a 4% paraformaldehyde solution in PBS for 20 min and then permeabilized for 1 hour with 0.1% Triton X-100 (Thermo Fisher Scientific) in PBS. Cells were then blocked with 5% bovine serum albumin in PBS for 1 hour at room temperature or over the weekend at 4°C. […] Last, VICs were washed once with PBS and then stored in PBS at 4°C until imaging. Gel samples were imaged in situ using a Nikon Eclipse Ti2-E and analyzed using an automated MATLAB code to quantify the αSMA gradient mean intensities and caspase-3 intensities normalized to cell mask for each cell. A minimum of 100 cells were used per gel with multiple gels used per condition.
(§6) Curve fitting for VIC percent αSMA reduction and cytotoxicity was performed using GraphPad Prism 10 (GraphPad Software Inc). For each inhibitor, the nonlinear regression tool in Prism was used to estimate the response against the agonist by fitting the top, bottom, EC50/CC50, and hillslope to each dataset. After 2 days of culture, the percent αSMA reduction was calculated using the average αSMA gradient mean intensities of the control relative to the drug condition using Eq. 1 %αSMA reduction=100×(Control−Drug Condition/Control) (1)

female VICs [4] = experiment: percent αSMA GMI reduction, female VICs on stiff hydrogels; assay type: cell-based, pig; conditions: for EC1 / EC2: from dose response curves; for Percent αSMA reduction, Average: n = 3-4 gels
Experimental: as §2, §3, §4, §5, §6

male VICs [5] = experiment: percent αSMA GMI reduction, male VICs on soft hydrogels; assay type: cell-based, pig; conditions: n = 3 gels
From the text: (§7) Last, we tested the ability of […]-designed combinations to prevent myofibroblast activation in VICs cultured on other substrates beyond stiff hydrogels. […] Six male-optimized combinations were effective in preventing male VIC myofibroblast activation (Fig. 7K). […] Single-drug monotherapies used in the top male and female drug combinations were confirmed to have a minimal effect on male and female VIC αSMA GMI on soft hydrogels (table S14). […] After aspirating off the spent media, VICs were resuspended in 5 ml of fresh 15% FBS media and seeded on T25 Falcon tissue culture-treated flasks (Thermo Fisher Scientific). […] VICs were collected by aspirating off spent media, washing with PBS (Sigma-Aldrich) for 1 min, then incubating with 1× trypsin (Life Technologies) for 3 min. Trypsin was neutralized with an equal volume of 15% FBS growth media and centrifuged for 5 min at 0.2g. The media solution was then aspirated, and VICs were resuspended with 1 ml of 1% FBS media. VICs were counted with an automated hemocytometer to calculate the volume of cell solution to add to each well to seed at 6400 cells per well (20,000 cells/cm^2) for TCPS and hydrogel experiments. […] For each inhibitor, the nonlinear regression tool in Prism was used to estimate the response against the agonist by fitting the top, bottom, EC50/CC50, and hillslope to each dataset.

female VICs [6] = experiment: percent αSMA GMI reduction, female VICs on soft hydrogels; assay type: cell-based, pig; conditions: n = 3 gels
From the text: as §7

female VICs [7] = test system: female VICs
Experimental: as §5
(§8) Percent cytotoxicity was determined by designating each cell as alive or dead using caspase-3 intensity normalized to cell mask intensity, which was thresholded using a positive and negative control for cell death [10 nM staurosporine (Cell Signaling Technologies) or 1% FBS media]. The bottom value for every curve fit was set to 0, and the top value was constrained to a maximum of 100 to indicate the maximum possible effect of the drug. […] Absolute EC and CC values for % αSMA reduction and percent cytotoxicity were quantified using the top, bottom, EC50/CC50, and hillslope values estimated from the curve fits generated in GraphPad Prism (GraphPad Software Inc).

male VICs [8] = test system: male VICs
Experimental: as §5, §8

[9] = female VICs, stiff hydrogels, from dose response curves
[10] = male VICs, stiff hydrogels, from dose response curves

SMILES	reduction in αSMA GMI, initial screen (male VICs [1])	Percent αSMA reduction, Average (male VICs [1]; single drug at L2 dose)	reduction in αSMA GMI, initial screen (female VICs [2])	Percent αSMA reduction, Average (female VICs [2]; single drug at L2 dose)	EC1 (male VICs [3])	EC2 (male VICs [3])	Percent αSMA reduction, Average (male VICs [3]; single drug at level 1 dose)	Percent αSMA reduction, Average (male VICs [3]; single drug at level 2 dose)	EC1 (female VICs [4])	EC2 (female VICs [4])	Percent αSMA reduction, Average (female VICs [4]; single drug at level 1 dose)	Percent αSMA reduction, Average (female VICs [4]; single drug at level 2 dose)	Percent αSMA reduction, Average (male VICs [5]; single drug at L2 dose)	Percent αSMA reduction, Average (female VICs [6]; single drug at L2 dose)	CC1 (female VICs [7]; female, pig)	CC2 (female VICs [7]; female, pig)	CC25 (percent cytotoxicity) (female VICs [7]; female, pig)	CC1 (male VICs [8]; male, pig)	CC2 (male VICs [8]; male, pig)	CC25 (percent cytotoxicity) (male VICs [8]; male, pig)	further results
Cc1cncc2cccc(S(=O)(=O)N3CCCNC[C@@H]3C)c12 [Combination H1152]	> 25%	-0.09%	> 25%	2.30%	1.96 µM	2.82 µM	-5.03%	0.66%	0.0765 µM	0.198 µM	8.04%	12.39%	-5.04%	3.37%							CC25 (percent cytotoxicity) (female VICs [7]; female VICs on stiff gels, n = 3 gels): 72.6 µM; CC1 (female VICs [7]; [9]): 0.26 µM; CC2 (female VICs [7]; [9]): 0.806 µM; CC25 (percent cytotoxicity) (male VICs [8]; male VICs on stiff gels, n = 3 gels): 6.27 µM; CC1 (male VICs [8]; [10]): 0.162 µM; CC2 (male VICs [8]; [10]): 0.28 µM
C[C@@H](N)[C@H]1CC[C@H](C(=O)Nc2ccncc2)CC1 [Combination Y-27632]	> 25%		> 25%	-2.07%	0.558 µM	1.34 µM	0.24%	2.37%	1.31 µM	2.81 µM	28.93%	22.12%		8.24%							sex difference in efficacy (male versus female EC20) (male VICs [1]): significantly more effective in male VICs relative to female VICs; Percent αSMA reduction, Average (male VICs [1]; single drug at L1 dose): 6.48%; Percent αSMA reduction, Average (female VICs [2]; single drug at L1 dose): 0.37%; Percent αSMA reduction, Average (male VICs [5]; single drug at L1 dose): -2.58%; Percent αSMA reduction, Average (female VICs [6]; single drug at L1 dose): 3.22%; CC1 (female VICs [7]): 27.5 µM; CC2 (female VICs [7]): 37.9 µM; CC25 (percent cytotoxicity) (female VICs [7]): 135 µM; CC1 (male VICs [8]): 10.8 µM; CC2 (male VICs [8]): 19.9 µM; CC25 (percent cytotoxicity) (male VICs [8]): 224 µM
O=c1cc(N2CCOCC2)oc2c(-c3ccccc3)cccc12 [LY294002]	> 25%	-4.91%	> 25%	-8.32%	12.8 µM	17.6 µM	6.86%	5.50%	8.63 µM	13.4 µM	9.50%	2.75%	13.23%	11.35%	17.7 µM	21.3 µM	45.2 µM	21.5 µM	25.2 µM	46.9 µM	
CCCCc1nc(Cl)c(CO)n1Cc1ccc(-c2ccccc2-c2nn[nH]n2)cc1 [Losartan]	> 25%	-1.33%	> 25%	1.39%	18.7 µM	32.9 µM	5.58%	0.99%	154 µM	219 µM	7.00%	2.37%	0.81%	2.73%	11.1 µM	27 µM	927 µM	378 µM	470 µM	1,123 uM	sex difference in efficacy (male versus female EC20) (male VICs [1]): significantly more effective in male VICs relative to female VICs; sex difference in efficacy (male versus female EC20) (male VICs [3]; unpaired two-tailed t test, P < 0.05): reducing αSMA GMI more in male VICs relative to female VICs
C[S+]([O-])c1ccc(-c2nc(-c3ccncc3)c(-c3ccc(F)cc3)[nH]2)cc1 (centres unmarked) [SB203580]	> 25%		> 25%		24.8 µM	40.8 µM	5.45%	3.67%	7.56 µM	14.5 µM	2.35%	-6.55%			29.8 µM	48.9 µM	874 µM	0.413 µM	2.18 µM	1,613 uM	
